Results from patent US12104188B2, “Modified caspase-9 polypeptides and methods of use thereof” (Allogene Therapeutics, Inc., priority 2017, dated 2024).

What was measured:
[1] = humans; Iuliucci J D, et al., 2001; cited from earlier work
[2] = target: FKBP12 polypeptide with the F36V mutation (Homo sapiens, UniProt P62942, F37V); details: cited from earlier work
primary T cells = assay: Induction of apoptosis in T cells containing chimeric caspase 9 proteins: % live GFP positive cells by flow cytometry, with or without AP1903; assay type: cell-based, human; details: for % GFP, AP1903 / % GFP, 0 mM AP1903: % GFP positive cells, 4 days after AP1903
Procedure: Primary T cells were prepared from each of four different human blood donors (“Donor 1”, “Donor 2”, “Donor 3” and “Donor 8”) as follows.
Previously-frozen primary T cells were thawed and activated with ImmunoCult Human CD3/CD28 T cell activator (StemCell, Cat #10971). 48 hours later, a lentiviral vector which contains a polynucleotide encoding a chimeric caspase 9 protein as described above was added to the activated primary T cells for transduction. Different lentiviral vectors were added to different samples of the primary T cells to test the activity of the different chimeric caspase 9 proteins. The respective lentiviral vectors were provided to the T cells in filtered supernatant from the HEK293T cells. T cells transduced with a polynucleotide encoding a chimeric caspase 9 protein subsequently expressed the respective chimeric caspase 9 protein.
T cells containing different chimeric caspase 9 proteins prepared as described in part A above were assayed for apoptosis in response to the dimeric ligand AP1903.
[…] On the 3rd or 4th day, the cells were measured by flow cytometry to determine the percentage of live cells that are GFP positive (+). (GFP is a marker for the chimeric caspase 9 protein.) Thus, it can be extrapolated that the greater the % of live GFP+ cells, the lower the apoptotic activity of the respective chimeric caspase 9 protein in this assay.

[3] = tested on: primary T cells from Donor #8; assay: Example 2: induction of apoptosis in Donor #8 T cells comprising chimeric caspase-9 proteins with or without a CAR, in response to AP1903; assay type: cell-based, human; details: Day 1 post-AP1903, Donor #8 primary T cells, FIG. 6
Procedure: T cells derived from donor #8 comprising various different chimeric caspase 9 proteins, some of which further comprise a CAR were prepared as described in part 1A above and were assayed for expression of chimeric caspase-9 and for induced apoptosis in response to the dimeric ligand AP1903.
For each assay, about 1,000,000 cells containing a particular chimeric caspase 9 protein were incubated with or without 10 nM AP1903 for 3 or 4 days. On days 1, 2 and 3 post-AP1903 (FIGS. 6, 7, and 8, respectively), the cells were measured by flow cytometry to determine the percentage of live cells that are GFP positive (+) (GFP is a marker for the chimeric caspase 9 protein). Thus, it can be extrapolated that the greater the % of live GFP+ cells, the lower the apoptotic activity of the respective chimeric caspase 9 protein in this assay.
In FIGS. 6-9, for each different chimeric caspase-9 protein, expressed with or without a CAR, there are two adjacent bars. The left-side bar is for the cells incubated without AP1903, and the right-side bar is for the corresponding cells incubated with AP1903. […] This observation is consistent with the application of the D330M-D379E construct as a fast-acting “safety switch” for CAR-T therapies.

[4] = Table 3, Donor # 1, primary T cells
[5] = Table 4, Donor # 2, primary T cells
[6] = Table 5, Donor # 1, primary T cells
[7] = Table 6, Donor # 1, primary T cells
[8] = Table 7, Donor # 3, primary T cells

FKBP12 polypeptide with the F36V mutation, sequence (P62942 whole entry F37V): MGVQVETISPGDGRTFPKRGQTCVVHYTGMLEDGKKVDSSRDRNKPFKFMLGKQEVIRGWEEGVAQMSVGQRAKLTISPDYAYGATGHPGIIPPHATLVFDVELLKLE

Compound	well-tolerated dose [1]	affinity for FKBP12 with the F36V mutation compared with wild-type FKBP12 [2]	affinity of FKBP12 containing the F36V mutation for AP1903 [2]	% GFP, AP1903 (primary T cells; [4])	% GFP, 0 mM AP1903 (primary T cells; [4])	% GFP, AP1903 (primary T cells; [5])	% GFP, 0 mM AP1903 (primary T cells; [5])	% GFP, AP1903 (primary T cells; [6])	% GFP, 0 mM AP1903 (primary T cells; [6])	% GFP, AP1903 (primary T cells; [7])	% GFP, 0 mM AP1903 (primary T cells; [7])	% GFP, AP1903 (primary T cells; [8])	% GFP, 0 mM AP1903 (primary T cells; [8])	activity profile (high % GFP+ without AP1903, large difference with AP1903) (primary T cells; assessment of Tables 3-7)	speed of induced apoptosis relative to the N405Q construct [3]
CC[C@H](C(=O)N1CCCC[C@H]1C(=O)O[C@H](CCc1ccc(OC)c(OC)c1)c1cccc(OCC(=O)NCCNC(=O)COc2cccc([C@@H](CCc3ccc(OC)c(OC)c3)OC(=O)[C@@H]3CCCCN3C(=O)[C@@H](CC)c3cc(OC)c(OC)c(OC)c3)c2)c1)c1cc(OC)c(OC)c(OC)c1 (relative stereo) [AP1903, 2-Piperidinecarboxylic acid, 1-[(2S)-1-oxo-2-(3,4,5-trimethoxyphenyl)butyl]-, 1,2 ethanediylbis[imino(2-oxo-2,1-ethanediyl)oxy-3,1-phenylene[(1R)-3-(3,-4-dimethoxyphenyl)propylidene]]ester, [2S [1(R*),2R*[S*[S*[1(R*),2R*]]]]]-(9Cl)]	at least 1 mg/kg	much greater affinity	high affinity												
D330M-D379E: chimeric caspase 9 protein (SEQ ID NO: 6): FKBP12 F36V dimerization domain, linker, caspase-9 polypeptide without CARD, D330M-D379E double mutation				7%	72%	2%	35%	6.95%	72.3%	5.04%	53.4%	7%	71%	attractive activity profiles	approximately 3 fold
